pIC50: −log10 of the molar value. Active and inactive are the calls of the source. No cut-off for these calls is given here.
Key:
HeLa [1] = test: Antiproliferative activity against human HeLa cells after 24 hrs by crystal violet staining-based assay; assay type: functional, cell-based
Ca-Ski [2] = test: Antiproliferative activity against human CaSki cells after 24 hrs by crystal violet staining-based assay; assay type: functional, cell-based
[3] = (§1) Antiproliferative activity against human ViBo cells after 24 hrs by crystal violet staining-based assay; assay type: functional, cell-based
HeLa [4] = test: Cytotoxicity against human HeLa cells assessed as induction of necrosis at antiproliferative IC50 after 24 hrs by LDH release assay relative to control; assay type: cell-based
Ca-Ski [5] = test: Cytotoxicity against human CaSki cells assessed as induction of necrosis at antiproliferative IC50 after 24 hrs by LDH release assay relative to control; assay type: cell-based
[6] = Cytotoxicity against human ViBo cells assessed as induction of necrosis at antiproliferative IC50 after 24 hrs by LDH release assay relative to control; assay type: cell-based
HeLa [7] = test: Induction of apoptosis in human HeLa cells assessed as caspase3 activity at antiproliferative IC50 after 24 hrs by FITC staining-based FACS analysis (reference value: 3%); assay type: functional
Ca-Ski [8] = test: Induction of apoptosis in human CaSki cells assessed as caspase3 activity at antiproliferative IC50 after 24 hrs by FITC staining-based FACS analysis (reference value: 5%); assay type: functional
[9] = Induction of apoptosis in human ViBo cells assessed as caspase3 activity at antiproliferative IC50 after 24 hrs by FITC staining-based FACS analysis (reference value: 5%); assay type: functional
Homo sapiens [10] = organism: Homo sapiens; test: as §1; assay type: functional, cell-based
HeLa [11] = test: Cell cycle analysis in human HeLa cells assessed as accumulation of cells at G1 phase at antiproliferative IC50 after 24 hrs by propidium iodide staining-based flow cytometric analysis (reference value: 69.25%); assay type: functional
HeLa [12] = test: Cell cycle analysis in human HeLa cells assessed as accumulation of cells at S phase at antiproliferative IC50 after 24 hrs by propidium iodide staining-based flow cytometric analysis (reference value: 10.37%); assay type: functional
HeLa [13] = test: Cell cycle analysis in human HeLa cells assessed as accumulation of cells at G2/M phase at antiproliferative IC50 after 24 hrs by propidium iodide staining-based flow cytometric analysis (reference value: 17.19%); assay type: functional
Ca-Ski [14] = test: Cell cycle analysis in human CaSki cells assessed as accumulation of cells at G1 phase at antiproliferative IC50 after 24 hrs by propidium iodide staining-based flow cytometric analysis (reference value: 69.31%); assay type: functional
Ca-Ski [15] = test: Cell cycle analysis in human CaSki cells assessed as accumulation of cells at S phase at antiproliferative IC50 after 24 hrs by propidium iodide staining-based flow cytometric analysis (reference value: 10.12%); assay type: functional
Ca-Ski [16] = test: Cell cycle analysis in human CaSki cells assessed as accumulation of cells at G2/M phase at antiproliferative IC50 after 24 hrs by propidium iodide staining-based flow cytometric analysis (reference value: 16.59%); assay type: functional
[17] = Cell cycle analysis in human ViBo cells assessed as accumulation of cells at G1 phase at antiproliferative IC50 after 24 hrs by propidium iodide staining-based flow cytometric analysis (reference value: 66.69%); assay type: functional
[18] = Cell cycle analysis in human ViBo cells assessed as accumulation of cells at S phase at antiproliferative IC50 after 24 hrs by propidium iodide staining-based flow cytometric analysis (reference value: 11.67%); assay type: functional
[19] = Cell cycle analysis in human ViBo cells assessed as accumulation of cells at G2/M phase at antiproliferative IC50 after 24 hrs by propidium iodide staining-based flow cytometric analysis (reference value: 16.20%); assay type: functional
HeLa [20] = test: Induction of apoptosis in human HeLa cells assessed as chromatin condensation at antiproliferative IC50 by DAPI staining-based epifluorescence microscopic analysis; assay type: functional, cell-based
HeLa [21] = test: Induction of apoptosis in human HeLa cells assessed as formation of apoptotic bodies at antiproliferative IC50 by DAPI staining-based epifluorescence microscopic analysis; assay type: functional, cell-based
Ca-Ski [22] = test: Induction of apoptosis in human CaSki cells assessed as chromatin condensation at antiproliferative IC50 by DAPI staining-based epifluorescence microscopic analysis; assay type: functional, cell-based
Ca-Ski [23] = test: Induction of apoptosis in human CaSki cells assessed as formation of apoptotic bodies at antiproliferative IC50 by DAPI staining-based epifluorescence microscopic analysis; assay type: functional, cell-based
Homo sapiens [24] = organism: Homo sapiens; test: Induction of apoptosis in human ViBo cells assessed as chromatin condensation at antiproliferative IC50 by DAPI staining-based epifluorescence microscopic analysis; assay type: functional, cell-based
Homo sapiens [25] = organism: Homo sapiens; test: Induction of apoptosis in human ViBo cells assessed as formation of apoptotic bodies at antiproliferative IC50 by DAPI staining-based epifluorescence microscopic analysis; assay type: functional, cell-based
HeLa [26] = test: Induction of apoptosis in human HeLa cells assessed as caspase3 activation at antiproliferative IC50 after 24 hrs by FITC/DAPI staining-based fluorescence microscopic analysis; assay type: functional, cell-based
Ca-Ski [27] = test: Induction of apoptosis in human CaSki cells assessed as caspase3 activation at antiproliferative IC50 after 24 hrs by FITC/DAPI staining-based fluorescence microscopic analysis; assay type: functional, cell-based
Homo sapiens [28] = organism: Homo sapiens; test: Induction of apoptosis in human ViBo cells assessed as caspase3 activation at antiproliferative IC50 after 24 hrs by FITC/DAPI staining-based fluorescence microscopic analysis; assay type: functional, cell-based
Lymphocyte [29] = test: Induction of cell proliferation of enriched human lymphocytes assessed as cell proliferation level at 0.73 uM after 72 hrs by CFSE staining-based flow cytometric analysis (reference value: 73.36%)
Lymphocyte [30] = test: Induction of cell proliferation of enriched human lymphocytes assessed as cell proliferation level at 0.99 uM after 72 hrs by CFSE staining-based flow cytometric analysis (reference value: 73.36%)
Lymphocyte [31] = test: Induction of cell proliferation of enriched human lymphocytes assessed as cell proliferation level at 2.36 uM after 72 hrs by CFSE staining-based flow cytometric analysis (reference value: 73.36%)
Lymphocyte [32] = test: Cytotoxicity in enriched human lymphocytes assessed as induction of necrosis by measuring LDH release at 0.73 uM after 72 hrs by LDH release assay; assay type: cell-based
Lymphocyte [33] = test: Cytotoxicity in enriched human lymphocytes assessed as induction of necrosis by measuring LDH release at 0.99 uM after 72 hrs by LDH release assay; assay type: cell-based
Lymphocyte [34] = test: Cytotoxicity in enriched human lymphocytes assessed as induction of necrosis by measuring LDH release at 2.36 uM after 72 hrs by LDH release assay; assay type: cell-based

CC(C)(C)OC(=O)N1CCN(C(=S)SC(C[N+](=O)[O-])c2ccccc2)CC1 (stereo not drawn)
pIC50 (HeLa [1]): 4.50 | pIC50 (Ca-Ski [2]): 4.53 | pIC50 [3]: 4.72 | Activity (HeLa [4]): 0% | Activity (Ca-Ski [5]): 0% | Activity [6]: 0%

CC[C@@]1(O)C(=O)OCc2c1cc1n(c2=O)Cc2cc3ccccc3nc2-1 [CAMPTOTHECIN]
pIC50 (HeLa [1]): 6.03 | pIC50 (Ca-Ski [2]): 5.74 | pIC50 [3]: 5.72 | Activity (HeLa [4]): 3% | Activity (Ca-Ski [5]): 2% | Activity [6]: 0% | Activity (HeLa [7]): 29% | Activity (Ca-Ski [8]): 62% | Activity [9]: 48%

CC(=O)O[C@H]1C(=O)[C@@]2(C)[C@H]([C@H](OC(=O)c3ccccc3)[C@]3(O)C[C@H](OC(=O)[C@H](O)[C@@H](NC(=O)c4ccccc4)c4ccccc4)C(C)=C1C3(C)C)[C@]1(OC(C)=O)CO[C@@H]1C[C@@H]2O [PACLITAXEL]
pIC50 (Ca-Ski [2]): 5.54 | pIC50 [3]: 5.80

CC(C)(C)OC(=O)N1C[C@@H]2C[C@H]1CN2C(=S)SC(C[N+](=O)[O-])c1ccccc1 (stereo partly drawn)
Activity (HeLa [1]): Dose-dependent effect | pIC50 (HeLa [1]): 6.00 | Activity (Ca-Ski [2]): Dose-dependent effect | pIC50 (Ca-Ski [2]): 5.63 | pIC50 [3]: 6.14 | Activity (Homo sapiens [10]): Dose-dependent effect | Activity (HeLa [4]): 3% | Activity (Ca-Ski [5]): 2% | Activity [6]: 0% | Activity (HeLa [11]): 70.26% | Activity (HeLa [12]): 10.68% | Activity (HeLa [13]): 16.01% | Activity (Ca-Ski [14]): 72.29% | Activity (Ca-Ski [15]): 10.49% | Activity (Ca-Ski [16]): 14.35% | Activity [17]: 64.38% | Activity [18]: 10.05% | Activity [19]: 20.48% | Activity (HeLa [20]): Active | Activity (HeLa [21]): Active | Activity (Ca-Ski [22]): Active | Activity (Ca-Ski [23]): Active | Activity (Homo sapiens [24]): Active | Activity (Homo sapiens [25]): Active | Activity (HeLa [26]): Active | Activity (Ca-Ski [27]): Active | Activity (Homo sapiens [28]): Active | Activity (HeLa [7]): 36% | Activity (Ca-Ski [8]): 42% | Activity [9]: 35% | Activity (Lymphocyte [29]): 64.02% | Activity (Lymphocyte [30]): 62.38% | Activity (Lymphocyte [31]): 7.44% | Activity (Lymphocyte [32]): Non-Toxic | Activity (Lymphocyte [33]): Non-Toxic | Activity (Lymphocyte [34]): Non-Toxic

CC(C)(C)OC(=O)N1C[C@@H]2C[C@H]1CN2C(=S)SC(C[N+](=O)[O-])c1ccc(Cl)cc1 (stereo partly drawn)
Activity (HeLa [1]): Dose-dependent effect | pIC50 (HeLa [1]): 5.25 | Activity (Ca-Ski [2]): Dose-dependent effect | pIC50 (Ca-Ski [2]): 5.14 | pIC50 [3]: 5.62 | Activity (Homo sapiens [10]): Dose-dependent effect | Activity (HeLa [4]): 4% | Activity (Ca-Ski [5]): 15% | Activity [6]: 12%

COc1ccc(C(C[N+](=O)[O-])SC(=S)N2C[C@@H]3C[C@H]2CN3C(=O)OC(C)(C)C)cc1 (stereo partly drawn)
Activity (HeLa [1]): Dose-dependent effect | pIC50 (HeLa [1]): 5.28 | Activity (Ca-Ski [2]): Dose-dependent effect | pIC50 (Ca-Ski [2]): 5.21 | pIC50 [3]: 5.58 | Activity (Homo sapiens [10]): Dose-dependent effect | Activity (HeLa [4]): 0% | Activity (Ca-Ski [5]): 0% | Activity [6]: 5%

CC(C)(C)OC(=O)N1C[C@@H]2C[C@H]1CN2C(=S)SC(C[N+](=O)[O-])c1ccc(C(F)(F)F)cc1 (stereo partly drawn)
Activity (HeLa [1]): Dose-dependent effect | pIC50 (HeLa [1]): 5.21 | Activity (Ca-Ski [2]): Dose-dependent effect | pIC50 (Ca-Ski [2]): 5.21 | pIC50 [3]: 5.14 | Activity (Homo sapiens [10]): Dose-dependent effect | Activity (HeLa [4]): 5% | Activity (Ca-Ski [5]): 20% | Activity [6]: 0%

CC(C)(C)OC(=O)N1C[C@@H]2C[C@H]1CN2C(=S)SC(C[N+](=O)[O-])c1ccc(F)cc1 (stereo partly drawn)
Activity (HeLa [1]): Dose-dependent effect | pIC50 (HeLa [1]): 5.10 | Activity (Ca-Ski [2]): Dose-dependent effect | pIC50 (Ca-Ski [2]): 5.17 | pIC50 [3]: 5.18 | Activity (Homo sapiens [10]): Dose-dependent effect | Activity (HeLa [4]): 2% | Activity (Ca-Ski [5]): 5% | Activity [6]: 8%

Cc1ccc(C(C[N+](=O)[O-])SC(=S)N2C[C@@H]3C[C@H]2CN3C(=O)OC(C)(C)C)cc1 (stereo partly drawn)
Activity (HeLa [1]): Dose-dependent effect | pIC50 (HeLa [1]): 5.26 | Activity (Ca-Ski [2]): Dose-dependent effect | pIC50 (Ca-Ski [2]): 5.23 | pIC50 [3]: 5.50 | Activity (Homo sapiens [10]): Dose-dependent effect | Activity (HeLa [4]): 0% | Activity (Ca-Ski [5]): 2% | Activity [6]: 5%
